Experimental data from patent publication US20220168427A1 (Ranok Therapeutics (Hangzhou) Co. Ltd., priority 2019, published 2022).
pIC50: −log10 of the molar value.

Columns and labels:
[1] = target: T1, BRD4 (BD1+BD2) (Homo sapiens, UniProt O60885); conditions: read-out: BRD4 Binding Potency
T1 construct: 1.8 μg/ml recombinant BRD4 (BD1+BD2 domains) protein
Procedure: A master mix was prepared with assay buffer, 1.8 μg/ml recombinant BRD4 (BD1+BD2 domains) protein, and 200-fold dilutions of Tb-labeled donor and dye-labeled acceptor. 40-fold dilutions of acetylated and non-acetylated ligands were prepared in 1×BRD TR-FRET assay buffer. Also, a serial 3-fold dilution of each compound was prepared ranging from 40 μM down until 2.0 nM. In a 384-well plate, 5 μl diluted ligand and 5 μl of compound dilution were added per well to duplicate wells and mixed by brief shaking. Then 10 μl of master mix was added per well, mixed by brief shaking, incubated at 25° C. for 2 hr and fluorescence was measured on an EnVision Plate Reader. The 665 nm/615 nm ratio was calculated from EnVision raw data. Data were normalized using whole-plate averages of “positive” and “negative” readings. A four-parameter “log[inhibitor] vs. response” curve was fitted using GraphPad Prism 7.0.

[2] = system: MV4-11 cells; experiment: MV4-11 Cell Cytotoxicity Assay; format: cell-based, human; conditions: human, MV4-11 cells, CCK-8
Text: % Inhibition=100−(D−B)/(S−B)*100%.
S: The absorbance of the maximum (cells with DMSO)
B: The absorbance of the minimum (medium with DMSO)

[3] = target: HSP90α (Homo sapiens, UniProt P07900); experiment: HSP90α Binding Fluorescent Polarization (FP) Assay; conditions: competition with FITC-geldanamycin; read-out: HSP90 Binding Potency
Procedure: HSP90α Binding Fluorescent Polarization (FP) Assay
A master mix was prepared with assay buffer, BSA and FITC-geldanamycin. In a 96-well plate, a serial 3-fold dilution of each compound was prepared ranging from 40 μM down until 2.0 nM. Also in a 96-well plate, recombinant HSP90α protein was diluted to 28 μg/ml. Then, in a 384-well plate, 10 μl of master mix and 5 μl of compound dilution were added per well to duplicate wells and mixed by brief shaking. Then 5 μl of diluted HSP90α protein was added per well, mixed by brief shaking, incubated at 25° C. for 30, 60 and 120 min and fluorescence was measured on an EnVision Plate Reader. Background-subtracted mP values were calculated from EnVision raw data and a four-parameter “log[inhibitor] vs. response” curve was fitted using GraphPad Prism 7.0.

SMILES | pIC50 [1] | IC50 at 72 h [2] [nM] | pIC50 [3]
CCc1cc(-c2nnc(O)n2-c2ccc(CN3CCC(C(=O)N4CCC(CNCC[C@@H]5N=C(c6ccc(Cl)cc6)c6c(sc(C)c6C)-n6c(C)nnc65)C4)CC3)cc2)c(O)cc1O (stereo partly drawn) [Compound 67, (3-(((2-((6S)-4-(4-chlorophenyl)-2,3,9-trimethyl-6H-thieno[3,2-f][1,2,4]triazolo[4,3-a][1,4]diazepin-6-yl)ethyl)amino)methyl)pyrrolidin-1-yl)(1-(4-(3-(5-ethyl-2,4-dihydroxyphenyl)-5-hydroxy-4H-1,2,4-triazol-4-yl)benzyl)piperidin-4-yl)methanone, trifluoroacetic acid] | 6.00 to 7.00 | 100 to 1000 | 6.00 to 7.00
Cc1sc2c(c1C)C(c1ccc(Cl)cc1)=N[C@@H](CC(=O)NCCOc1cccc(CN(C)Cc3ccc(-n4c(O)nnc4-c4cc(C(C)C)c(O)cc4O)cc3)c1)c1nnc(C)n1-2 [Compound 50, 2-((6S)-4-(4-chlorophenyl)-2,3,9-trimethyl-6H-thieno[3,2-f][1,2,4]triazolo[4,3-a][1,4]diazepin-6-yl)-N-(2-(3-(((4-(3-(2,4-dihydroxy-5-isopropylphenyl)-5-hydroxy-4H-1,2,4-triazol-4-yl)benzyl)(methyl)amino)methyl)phenoxy)ethyl)acetamide, trifluoroacetic acid, trifluoroacetic acid, trifluoroacetic acid, trifluoroacetic …] | < 6.00 | < 100 | 6.00 to 7.00
Cc1sc2c(c1C)C(c1ccc(Cl)cc1)=NC(CC(=O)N1CCC(Cc3ccc(CN(C)Cc4ccc(-n5c(C(=O)NCC(F)(F)F)nnc5-c5cc(C(C)C)c(O)cc5O)cc4)cc3)CC1)c1nnc(C)n1-2 (stereo in doubt) [Compound 84, (S)-4-(4-(((4-((1-(2-(4-(4-chlorophenyl)-2,3,9-trimethyl-6H-thieno[3,2-f][1,2,4]triazolo[4,3-a][1,4]diazepin-6-yl)acetyl)piperidin-4-yl)methyl)benzyl)(methyl)amino)methyl)phenyl)-5-(2,4-dihydroxy-5-isopropylphenyl)-N-(2,2,2-trifluoroethyl)-4H-1,2,4-triazole-3-carboxamide, trifluoroacetic acid] | < 6.00 | < 100 | 6.00 to 7.00
Cc1sc2c(c1C)C(c1ccc(Cl)cc1)=N[C@@H](CC(=O)NCC(=O)NCCOc1ccc(-n3c(O)nnc3-c3cc(C(C)C)c(O)cc3O)cc1)c1nnc(C)n1-2 [Compound 54, (S)-2-(4-(4-chlorophenyl)-2,3,9-trimethyl-6H-thieno[3,2-f][1,2,4]triazolo[4,3-a][1,4]diazepin-6-yl)-N-(2-((2-(4-(3-(2,4-dihydroxy-5-isopropylphenyl)-5-hydroxy-4H-1,2,4-triazol-4-yl)phenoxy)ethyl)amino)-2-oxoethyl)acetamide] | 6.00 to 7.00 | 100 to 1000 | > 7.00
Cc1sc2c(c1C)C(c1ccc(Cl)cc1)=N[C@@H](CC(=O)N1CCC(N3CCN(c4ccc(-n5c(O)nnc5-c5cc(C(C)C)c(O)cc5O)cc4)CC3)CC1)c1nnc(C)n1-2 [Compound 43, 2-((6S)-4-(4-chlorophenyl)-2,3,9-trimethyl-6H-thieno[3,2-f][1,2,4]triazolo[4,3-a][1,4]diazepin-6-yl)-1-(4-(4-(4-(3-(2,4-dihydroxy-5-isopropylphenyl)-5-hydroxy-4H-1,2,4-triazol-4-yl)phenyl)piperazin-1-yl)piperidin-1-yl)ethanone, trifluoroacetic acid] | 6.00 to 7.00 | < 100 | 6.00 to 7.00
Cc1sc2c(c1C)C(c1ccc(Cl)cc1)=N[C@@H](CC(=O)N1CCC(CN3CCN(Cc4ccc(-n5c(C(=O)NC(C)C)nnc5-c5cc(C(C)C)c(O)cc5O)cc4)CC3)CC1)c1nnc(C)n1-2 [Compound 108, (S)-4-(4-((4-((1-(2-(4-(4-chlorophenyl)-2,3,9-trimethyl-6H-thieno[3,2-f][1,2,4]triazolo[4,3-a][1,4]diazepin-6-yl)acetyl)piperidin-4-yl)methyl)piperazin-1-yl)methyl)phenyl)-5-(2,4-dihydroxy-5-isopropylphenyl)-N-isopropyl-4H-1,2,4-triazole-3-carboxamide, trifluoroacetic acid] | < 6.00 | 100 to 1000 | < 6.00
CCCc1cc(-c2nnc(C(=O)NCCN3CCCCC3)n2-c2ccc(CN3CCN(CC4CCN(C(=O)C[C@@H]5N=C(c6ccc(Cl)cc6)c6c(sc(C)c6C)-n6c(C)nnc65)CC4)CC3)cc2)c(O)cc1O [Compound 123, (S)-4-(4-((4-((1-(2-(4-(4-chlorophenyl)-2,3,9-trimethyl-6H-thieno[3,2-f][1,2,4]triazolo[4,3-a][1,4]diazepin-6-yl)acetyl)piperidin-4-yl)methyl)piperazin-1-yl)methyl)phenyl)-5-(2,4-dihydroxy-5-propylphenyl)-N-(2-(piperidin-1-yl)ethyl)-4H-1,2,4-triazole-3-carboxamide, trifluoroacetic acid] | > 7.00 | < 100 | 6.00 to 7.00
CCN(Cc1ccc(OCCCNC(=O)C[C@@H]2N=C(c3ccc(Cl)cc3)c3c(sc(C)c3C)-n3c(C)nnc32)cc1)Cc1ccc(-n2c(C(=O)NCC(F)(F)F)nnc2-c2cc(C(C)C)c(O)cc2O)cc1 [Compound 102, (S)-4-(4-(((4-(3-(2-(4-(4-chlorophenyl)-2,3,9-trimethyl-6H-thieno[3,2-f][1,2,4]triazolo[4,3-a][1,4]diazepin-6-yl)acetamido)propoxy)benzyl)(ethyl)amino)methyl)phenyl)-5-(2,4-dihydroxy-5-isopropylphenyl)-N-(2,2,2-trifluoroethyl)-4H-1,2,4-triazole-3-carboxamide, trifluoroacetic acid] | < 6.00 | < 100 | < 6.00
COc1cccc(-c2cc(C(=O)Nc3ccc(-c4ccc(OC5CCN(CC[C@@H]6N=C(c7ccc(Cl)cc7)c7c(sc(C)c7C)-n7c(C)nnc76)CC5)cc4O)cc3)ccc2OC)c1 [Compound 132] | < 6.00 | > 1000 | < 6.00
Cc1sc2c(c1C)C(c1ccc(Cl)cc1)=N[C@@H](CCN(C)CCOCCOc1ccc(-n3c(O)nnc3-c3cc(C(C)C)c(O)cc3O)cc1)c1nnc(C)n1-2 [Compound 71, (S)-4-(4-(4-(2-(2-((2-(4-(4-chlorophenyl)-2,3,9-trimethyl-6H-thieno[3,2-f][1,2,4]triazolo[4,3-a][1,4]diazepin-6-yl)ethyl)(methyl)amino)ethoxy)ethoxy)phenyl)-5-hydroxy-4H-1,2,4-triazol-3-yl)-6-isopropylbenzene-1,3-diol, trifluoroacetic acid] | < 6.00 | 100 to 1000 | 6.00 to 7.00
Cc1sc2c(c1C)C(c1ccc(Cl)cc1)=N[C@@H](CC(=O)NCC(=O)NCCOCCOc1ccc(-n3c(O)nnc3-c3cc(C(C)C)c(O)cc3O)cc1)c1nnc(C)n1-2 [Compound 55, (S)-2-(4-(4-chlorophenyl)-2,3,9-trimethyl-6H-thieno[3,2-f][1,2,4]triazolo[4,3-a][1,4]diazepin-6-yl)-N-(2-((2-(2-(4-(3-(2,4-dihydroxy-5-isopropylphenyl)-5-hydroxy-4H-1,2,4-triazol-4-yl)phenoxy)ethoxy)ethyl)amino)-2-oxoethyl)acetamide] | 6.00 to 7.00 | 100 to 1000 | 6.00 to 7.00
CCn1c(=O)/c(=C2\Sc3ccccc3N2C)s/c1=C\c1cccc[n+]1CCCNC(=O)C[C@@H]1N=C(c2ccc(Cl)cc2)c2c(sc(C)c2C)-n2c(C)nnc21 [Compound 7, 1-(3-(2-((6S)-4-(4-chlorophenyl)-2,3,9-trimethyl-6H-thieno[3,2-f][1,2,4]triazolo[4,3-a][1,4]diazepin-6-yl)acetamido)propyl)-2-((Z)-((E)-3-ethyl-5-(3-methylbenzo[d]thiazol-2(3H)-ylidene)-4-oxothiazolidin-2-ylidene)methyl)pyridin-1-ium chloride] | > 7.00 | 100 to 1000 | < 6.00
Cc1sc2c(c1C)C(c1ccc(Cl)cc1)=N[C@@H](CC(=O)N(C)[C@H](C)c1ccc(CN3CCN(Cc4ccc(-n5c(O)nnc5-c5cc(C(C)C)c(O)cc5O)cc4)CC3)cc1)c1nnc(C)n1-2 [Compound 92, 2-((S)-4-(4-chlorophenyl)-2,3,9-trimethyl-6H-thieno[3,2-f][1,2,4]triazolo[4,3-a][1,4]diazepin-6-yl)-N—((R)-1-(4-((4-(4-(3-(2,4-dihydroxy-5-isopropylphenyl)-5-hydroxy-4H-1,2,4-triazol-4-yl)benzyl)piperazin-1-yl)methyl)phenyl)ethyl)-N-methylacetamide, trifluoroacetic acid] | < 6.00 | 100 to 1000 | < 6.00
